# According to PubChem BioAssay AID328 (DTP/NCI, 2004):
# Several values for one entry are separate records, joined by “and”; a condition that tells them apart may be missing. Identical values can stand only once. Inconclusive results and toxic doses are left out.
# Tested on: BDF1 mice, P388 leukemia ip, median survival T/C
# Assay: NCI In Vivo Anticancer Drug Screen. Data for tumor model P388 Leukemia (intraperitoneal) in B6D2F1 (BDF1) mice
# Conditions: endpoint: median survival time, higher = longer survival
# Outline: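 Read-out is survival of treated animals expressed relative to the vehicle group, as a T/C ratio.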
# [1] = dose: 25.0 mg/kg/injection, schedule: Q01DX009 (ip), vehicle: saline
# [2] = dose: 50.0 mg/kg/injection, schedule: Q01DX009 (ip), vehicle: saline with Tween-80
# [3] = dose: 50.0 mg/kg/injection, schedule: Q01DX009 (ip), vehicle: saline
# [4] = dose: 100.0 mg/kg/injection, schedule: Q01DX009 (ip), vehicle: saline with Tween-80
structure (smiles),measurement,setting,value
COC(=O)C1C(O)CCC2CN3CCc4c([nH]c5ccccc45)C3CC21 (stereo not drawn),T/C,[1],88 % of control
same,T/C,[2],105 % of control
same,T/C,[3],88 % of control
same,T/C,[4],119 % of control
same,T/C,"dose: 100.0 mg/kg/injection, schedule: Q01DX009 (ip), vehicle: saline",110 % of control
same,T/C,"dose: 200.0 mg/kg/injection, schedule: Q01DX009 (ip), vehicle: saline",118 % of control
COC(=O)/C=C1\C(C(=O)OC)=Cc2ccccc2N1C,T/C,"dose: 12.5 mg/kg/injection, schedule: Q01DX009 (ip), vehicle: saline with Tween-80",100 % of control
same,T/C,"dose: 25.0 mg/kg/injection, schedule: Q01DX009 (ip), vehicle: saline with Tween-80",100 % of control
same,T/C,"dose: 25.0 mg/kg/injection, schedule: Q04DX003 (ip), vehicle: saline with Tween-80",104 % of control
same,T/C,[2],105 % of control
same,T/C,"dose: 50.0 mg/kg/injection, schedule: Q04DX003 (ip), vehicle: saline with Tween-80",100 % of control
same,T/C,[4],91 % of control
same,T/C,"dose: 100.0 mg/kg/injection, schedule: Q04DX003 (ip), vehicle: saline with Tween-80",87 % of control and 90 % of control
same,T/C,"dose: 200.0 mg/kg/injection, schedule: Q04DX003 (ip), vehicle: saline with Tween-80",87 % of control
COc1cccc2c1C(=O)c1c(O)c3c(c(O)c1C2=O)CC(O)(C(=O)CO)CC3OC1CC(N)C(O)C(C)O1 (stereo not drawn),T/C,"dose: 1.73 mg/kg/injection, schedule: Q01DX004 (ip), vehicle: water",234 % of control
same,T/C,"dose: 2.88 mg/kg/injection, schedule: Q01DX004 (ip), vehicle: water",246 % of control
same,T/C,"dose: 4.8 mg/kg/injection, schedule: Q01DX004 (ip), vehicle: water",283 % of control
same,T/C,"dose: 6.48 mg/kg/injection, schedule: Q04DX003 (ip), vehicle: saline",158 % of control
same,T/C,"dose: 10.8 mg/kg/injection, schedule: Q04DX003 (ip), vehicle: saline",169 % of control
same,T/C,"dose: 18.0 mg/kg/injection, schedule: Q04DX003 (ip), vehicle: saline",187 % of control
same,T/C,"dose: 30.0 mg/kg/injection, schedule: Q04DX003 (ip), vehicle: saline",116 % of control
Cc1ccc(S(=O)(=O)NC(=O)C2C(=O)CC3(CCCCC3)CC2=O)cc1,T/C,"dose: 50.0 mg/kg/injection, schedule: Q01DX009 (ip), vehicle: Klucel (hydroxypropylcellulose) (HPC)",109 % of control
same,T/C,"dose: 100.0 mg/kg/injection, schedule: Q01DX009 (ip), vehicle: Klucel (hydroxypropylcellulose) (HPC)",118 % of control
C=C1C(=O)OC2/C=C(\C)CC(O)/C=C(\C)CC(OC(=O)/C(=C\C)COC(C)=O)C12 (stereo not drawn),T/C,"dose: 20.0 mg/kg/injection, schedule: Q01DX009 (ip), vehicle: saline",122 % of control
same,T/C,"dose: 44.0 mg/kg/injection, schedule: Q01DX009 (ip), vehicle: saline",150 % of control
same,T/C,"dose: 66.0 mg/kg/injection, schedule: Q01DX009 (ip), vehicle: saline",122 % of control
CC(=O)OCC(=O)[C@@]1(O)CC[C@H]2[C@@H]3CCC4=CC(=O)C=C[C@]4(C)[C@H]3[C@@H](O)C[C@@]21C,T/C,[1],91 % of control
same,T/C,[3],91 % of control
same,T/C,"dose: 100.0 mg/kg/injection, schedule: Q04DX003 (ip), vehicle: saline",109 % of control
CCCCCCCCCCCCSC(=N)N,T/C,"dose: 0.39 mg/kg/injection, schedule: Q04DX003 (ip), vehicle: saline",104 % of control
same,T/C,"dose: 0.78 mg/kg/injection, schedule: Q04DX003 (ip), vehicle: saline",104 % of control
same,T/C,"dose: 3.12 mg/kg/injection, schedule: Q04DX003 (ip), vehicle: saline",100 % of control
same,T/C,"dose: 6.25 mg/kg/injection, schedule: Q01DX009 (ip), vehicle: saline",109 % of control
same,T/C,"dose: 12.5 mg/kg/injection, schedule: Q01DX009 (ip), vehicle: saline",100 % of control
same,T/C,[1],100 % of control
CC1CCC2(C)CCC3(C)C(=CCC4C5(C)CCC(OC(=O)c6ccccc6)C(C)(C)C5CCC43C)C2C1C (stereo not drawn),T/C,"dose: 75.0 mg/kg/injection, schedule: Q04DX003 (ip), vehicle: saline with Tween-80",100 % of control
same,T/C,"dose: 150.0 mg/kg/injection, schedule: Q04DX003 (ip), vehicle: saline with Tween-80",100 % of control
same,T/C,"dose: 300.0 mg/kg/injection, schedule: Q04DX003 (ip), vehicle: saline with Tween-80",105 % of control
